Reference: ChEMBL document CHEMBL3132769, “Fragment growing to retain or alter the selectivity of anchored kinase hinge-binding fragments” (Medchemcomm, 2014)

Legend:
[1] = biological target: Insulin receptor (Homo sapiens) (UniProt P06213); test: Inhibition of human INSR catalytic domain expressed in baculovirus assessed as substrate phosphorylation using fluorescence-labelled peptides as substrate at 0.2 uM after 90 mins by microfluidic peptide phosphorylation assay
[2] = test system: T1, Receptor-type tyrosine-protein kinase FLT3 (Homo sapiens), P36888 [D835Y]; test: Inhibition of human FLT3 D835Y mutant catalytic domain expressed in baculovirus assessed as substrate phosphorylation using fluorescence-labelled peptides as substrate at 0.2 uM after 90 mins by microfluidic peptide phosphorylation assay
T1 sequence (whole entry): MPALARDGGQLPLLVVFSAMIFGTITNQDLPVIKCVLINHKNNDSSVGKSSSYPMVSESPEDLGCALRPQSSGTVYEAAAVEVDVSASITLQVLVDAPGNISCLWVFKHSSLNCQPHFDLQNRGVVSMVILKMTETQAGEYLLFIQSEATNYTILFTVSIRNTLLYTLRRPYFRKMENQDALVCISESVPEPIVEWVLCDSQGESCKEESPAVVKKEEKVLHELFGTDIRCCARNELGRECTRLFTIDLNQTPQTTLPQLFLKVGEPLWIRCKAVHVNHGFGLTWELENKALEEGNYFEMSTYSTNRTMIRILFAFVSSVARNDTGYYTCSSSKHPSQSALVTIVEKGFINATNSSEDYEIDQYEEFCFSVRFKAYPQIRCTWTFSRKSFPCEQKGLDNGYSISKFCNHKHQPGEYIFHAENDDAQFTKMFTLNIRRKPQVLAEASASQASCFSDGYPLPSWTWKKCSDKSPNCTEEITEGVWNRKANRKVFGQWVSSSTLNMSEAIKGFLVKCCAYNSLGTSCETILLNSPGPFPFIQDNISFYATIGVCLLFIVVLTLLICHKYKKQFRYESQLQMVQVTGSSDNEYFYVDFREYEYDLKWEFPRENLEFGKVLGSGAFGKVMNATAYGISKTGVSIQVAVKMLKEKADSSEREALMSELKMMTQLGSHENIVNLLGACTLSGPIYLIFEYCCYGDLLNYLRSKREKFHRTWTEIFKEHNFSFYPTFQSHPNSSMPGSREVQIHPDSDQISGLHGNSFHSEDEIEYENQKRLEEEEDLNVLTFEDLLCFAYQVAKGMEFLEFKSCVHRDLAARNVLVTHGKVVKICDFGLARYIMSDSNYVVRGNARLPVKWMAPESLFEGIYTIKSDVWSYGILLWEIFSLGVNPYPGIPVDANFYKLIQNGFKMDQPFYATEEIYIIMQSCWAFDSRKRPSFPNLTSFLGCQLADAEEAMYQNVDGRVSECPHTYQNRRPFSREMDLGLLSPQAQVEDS

[3] = biological target: T2, Mitogen-activated protein kinase 12 (Homo sapiens) (UniProt P53778); test: Inhibition of human full length p38 gamma expressed in Escherichia coli cell assessed as substrate phosphorylation using fluorescence-labelled peptides as substrate at 0.06 uM after 90 mins by microfluidic peptide phosphorylation assay
T2 sequence (whole entry): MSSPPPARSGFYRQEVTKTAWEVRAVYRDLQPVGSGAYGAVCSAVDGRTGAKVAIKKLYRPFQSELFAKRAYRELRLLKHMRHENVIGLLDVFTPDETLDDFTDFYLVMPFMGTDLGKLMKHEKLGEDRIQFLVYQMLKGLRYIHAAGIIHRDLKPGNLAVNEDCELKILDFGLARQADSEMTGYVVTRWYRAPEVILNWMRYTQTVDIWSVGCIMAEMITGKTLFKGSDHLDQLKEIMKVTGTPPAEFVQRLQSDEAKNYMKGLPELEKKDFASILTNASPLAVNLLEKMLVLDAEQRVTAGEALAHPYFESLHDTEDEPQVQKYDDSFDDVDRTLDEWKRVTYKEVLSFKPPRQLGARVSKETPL

[4] = biological target: Mitogen-activated protein kinase 3 (Homo sapiens) (UniProt P27361); test: Inhibition of human full length ERK1 expressed in Escherichia coli cell assessed as substrate phosphorylation using fluorescence-labelled peptides as substrate at 0.1 uM after 90 mins by microfluidic peptide phosphorylation assay
Mitogen-activated protein kinase 3 (Homo sapiens), sequence (P27361 whole entry): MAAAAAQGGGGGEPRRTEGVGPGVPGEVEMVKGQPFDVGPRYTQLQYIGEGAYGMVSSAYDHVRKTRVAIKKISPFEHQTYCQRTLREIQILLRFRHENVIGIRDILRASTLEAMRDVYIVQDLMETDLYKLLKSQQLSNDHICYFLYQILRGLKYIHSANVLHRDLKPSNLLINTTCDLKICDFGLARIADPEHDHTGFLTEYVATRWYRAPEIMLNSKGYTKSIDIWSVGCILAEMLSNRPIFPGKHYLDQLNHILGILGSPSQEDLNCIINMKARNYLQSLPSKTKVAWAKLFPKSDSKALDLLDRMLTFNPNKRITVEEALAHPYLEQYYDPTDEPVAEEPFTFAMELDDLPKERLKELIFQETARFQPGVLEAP

[5] = biological target: Protein kinase C beta type (Homo sapiens) (UniProt P05771); settings: 0.1 uM
Protein kinase C beta type (Homo sapiens), sequence (P05771 2-671 limits assumed): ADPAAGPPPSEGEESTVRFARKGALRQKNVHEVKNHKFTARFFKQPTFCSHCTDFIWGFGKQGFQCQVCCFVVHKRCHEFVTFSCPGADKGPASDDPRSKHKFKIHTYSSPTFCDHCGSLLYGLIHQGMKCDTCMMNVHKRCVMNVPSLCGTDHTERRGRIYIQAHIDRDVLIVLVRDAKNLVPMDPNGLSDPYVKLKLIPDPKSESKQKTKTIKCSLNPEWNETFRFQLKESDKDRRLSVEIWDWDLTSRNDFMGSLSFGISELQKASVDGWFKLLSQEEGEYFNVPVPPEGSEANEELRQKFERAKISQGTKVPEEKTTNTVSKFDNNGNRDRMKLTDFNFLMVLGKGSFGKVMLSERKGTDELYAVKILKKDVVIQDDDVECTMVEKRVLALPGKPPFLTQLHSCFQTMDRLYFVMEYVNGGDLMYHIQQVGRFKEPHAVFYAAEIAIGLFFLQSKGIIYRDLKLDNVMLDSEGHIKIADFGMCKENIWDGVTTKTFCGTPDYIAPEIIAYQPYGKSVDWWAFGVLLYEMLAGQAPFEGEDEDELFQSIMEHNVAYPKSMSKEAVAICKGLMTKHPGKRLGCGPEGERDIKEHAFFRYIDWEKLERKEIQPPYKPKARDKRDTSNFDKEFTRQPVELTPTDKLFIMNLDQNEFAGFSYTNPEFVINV
Description: Inhibition of human full length PKC beta2 expressed in baculovirus assessed as substrate phosphorylation using fluorescence-labelled peptides as substrate at 0.1 uM after 90 mins by microfluidic peptide phosphorylation assay

[6] = biological target: T3, Serine/threonine-protein kinase D1 (Homo sapiens) (UniProt Q15139); test: Inhibition of human full length PKD1 expressed in baculovirus assessed as substrate phosphorylation using fluorescence-labelled peptides as substrate at 9 uM after 90 mins by microfluidic peptide phosphorylation assay
T3 sequence (whole entry): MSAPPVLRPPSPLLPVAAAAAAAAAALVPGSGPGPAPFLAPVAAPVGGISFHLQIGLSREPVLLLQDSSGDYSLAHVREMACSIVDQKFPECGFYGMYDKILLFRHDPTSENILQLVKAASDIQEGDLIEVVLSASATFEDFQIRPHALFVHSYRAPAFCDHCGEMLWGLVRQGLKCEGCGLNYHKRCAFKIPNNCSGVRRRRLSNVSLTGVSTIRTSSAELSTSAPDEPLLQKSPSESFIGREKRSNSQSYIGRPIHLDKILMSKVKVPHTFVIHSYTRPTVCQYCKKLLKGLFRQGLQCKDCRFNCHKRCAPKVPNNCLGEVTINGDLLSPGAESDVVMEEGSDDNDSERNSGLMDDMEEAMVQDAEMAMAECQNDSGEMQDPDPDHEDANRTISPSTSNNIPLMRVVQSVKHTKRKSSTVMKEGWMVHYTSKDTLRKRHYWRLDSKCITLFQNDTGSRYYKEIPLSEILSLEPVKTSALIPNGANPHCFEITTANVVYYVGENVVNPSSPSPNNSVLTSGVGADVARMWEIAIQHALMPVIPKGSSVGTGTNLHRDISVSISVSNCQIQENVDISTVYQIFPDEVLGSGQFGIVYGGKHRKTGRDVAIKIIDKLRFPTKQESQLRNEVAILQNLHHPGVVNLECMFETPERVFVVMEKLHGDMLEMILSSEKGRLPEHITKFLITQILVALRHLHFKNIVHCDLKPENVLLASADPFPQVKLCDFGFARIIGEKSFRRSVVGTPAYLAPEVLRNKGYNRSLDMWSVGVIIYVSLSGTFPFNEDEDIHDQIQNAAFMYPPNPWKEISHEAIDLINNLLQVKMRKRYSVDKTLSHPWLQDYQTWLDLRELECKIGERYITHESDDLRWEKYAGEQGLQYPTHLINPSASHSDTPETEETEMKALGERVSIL

[7] = biological target: Ribosomal protein S6 kinase alpha-3 (Homo sapiens) (UniProt P51812); test: Inhibition of human full length RSK2 expressed in baculovirus assessed as substrate phosphorylation using fluorescence-labelled peptides as substrate at 9 uM after 90 mins by microfluidic peptide phosphorylation assay
Ribosomal protein S6 kinase alpha-3 (Homo sapiens), sequence (P51812 whole entry): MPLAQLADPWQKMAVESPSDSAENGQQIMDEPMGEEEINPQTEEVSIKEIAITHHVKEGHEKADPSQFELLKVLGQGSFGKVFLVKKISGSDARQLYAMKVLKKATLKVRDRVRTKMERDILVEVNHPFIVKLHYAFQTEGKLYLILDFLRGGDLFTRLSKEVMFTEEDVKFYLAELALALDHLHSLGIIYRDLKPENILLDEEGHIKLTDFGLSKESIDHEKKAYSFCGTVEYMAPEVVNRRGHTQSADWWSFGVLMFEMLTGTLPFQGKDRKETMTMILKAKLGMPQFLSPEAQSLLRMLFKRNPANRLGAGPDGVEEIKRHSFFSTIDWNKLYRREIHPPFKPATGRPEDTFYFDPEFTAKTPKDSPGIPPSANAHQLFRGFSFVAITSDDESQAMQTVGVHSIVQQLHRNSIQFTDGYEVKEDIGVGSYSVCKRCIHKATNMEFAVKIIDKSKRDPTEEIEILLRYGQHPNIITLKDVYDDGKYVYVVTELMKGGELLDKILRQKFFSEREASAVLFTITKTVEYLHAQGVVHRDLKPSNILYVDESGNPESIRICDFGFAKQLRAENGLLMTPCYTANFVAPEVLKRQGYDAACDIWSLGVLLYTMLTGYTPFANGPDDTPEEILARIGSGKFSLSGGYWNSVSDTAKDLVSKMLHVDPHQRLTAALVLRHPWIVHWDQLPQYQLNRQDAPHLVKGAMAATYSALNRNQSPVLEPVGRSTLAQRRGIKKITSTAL

Work on `Clc1ccc(C2(c3ccc(-c4ncnc5[nH]cnc45)cc3)CCNCC2)cc1` yielded an inhibition [1] of 11% and an inhibition [2] of 16%.
With `NC1(Cc2ccc(Cl)cc2)CCN(c2ncnc3[nH]ccc23)CC1` the inhibition [3] was 0%.
`C[C@H](CN(C)C)Oc1nc(Nc2cc3cccc(Cl)c3cn2)cnc1C#N` showed an inhibition [4] of 1% and an inhibition [5] of 0%.
Work on `NCC1CN(c2ncnc3[nH]c4cnccc4c23)CCO1` (configuration not stated) yielded an inhibition [6] of 76% and an inhibition [7] of 95.5%.
